Measurements published in patent US20050203290A1, “Crystalline form of sucralose, and method for producing it” (priority 2003, published 2005).

What was measured:
[1] = accelerated aging test (shelf life of crystalline sucralose); format: physicochemical
Experimental: Shelf life of crystalline sucralose is commonly estimated by performing an accelerated aging test. In this test the crystals are maintained in a controlled atmosphere at 50° C. (122° F.), and sampled periodically. Each sample is dissolved in water and the pH of a 10% solution is tracked to determine the elapsed time at which the pH drops by one unit, indicating a slight sucralose decomposition. Crystals made by traditional methods are considered stable when such decomposition is not indicated until at least 3 days in this test. This is considered equivalent to a shelf life under ambient conditions of about 8 years.

[2] = particle size analysis by light scattering (Coulter LS100Q); format: physicochemical; conditions: Isopar G isoparaffin fluid as dispersing medium
Experimental: Particle size analysis of the product is performed using a Coulter LS100Q Particle Size Analyzer, available from Coulter Corporation of Miami, Florida. The analyzer operates by light scattering, using Isopar™ G isoparaffin fluid, available from ExxonMobil Chemical of Houston, Tex., as the dispersing medium. The sucralose product crystals have a particle size distribution such that 90 wt. % of the sample has a particle size less than 62 μm, while 10 wt. % has a particle size less than from about 4 μm, with a mean of 30 μm.

SMILES	elapsed time until pH drop under accelerated conditions ([1]; 50° C., dried at the preferred temperature, moisture levels typical of old crystals)	mean particle size [2]	particle size below which 10 wt. % of the sample lies [2]	particle size below which 90 wt. % of the sample lies [2]	stability in accelerated aging test: elapsed time until pH of a 10% solution drops by one unit ([1]; crystals kept at 50° C. (122° F.) in controlled atmosphere, Example product dried at about 60° F., moisture about 0.5 wt. %)	shelf life under typical ambient storage conditions corresponding to the accelerated aging result ([1]; extrapolated from accelerated aging test at 50° C.)
OC[C@H]1O[C@H](O[C@]2(CCl)O[C@H](CCl)[C@@H](O)[C@@H]2O)[C@H](O)[C@@H](O)[C@H]1Cl [old crystals, 4,1′,6′-trichloro-4,1′,6′-trideoxygalactosucrose, reference compound]	3 days					
OC[C@H]1O[C@H](O[C@]2(CCl)O[C@H](CCl)[C@@H](O)[C@@H]2O)[C@H](O)[C@@H](O)[C@H]1Cl [sucralose product crystals, 4,1′,6′-trichloro-4,1′,6′-trideoxygalactosucrose]		30 μm	< 4 μm	less than 62 μm	at least 3 days	about 8 years
